# Test results taken from publication PMC11496002 (Epilepsia, 2024).
# Where two headings read alike, the source gives them in different places.
# Key:
# [1] = Plasma and brain pharmacokinetics after intraperitoneal administration; conditions: for Brain/Plasma ratio AUC0-inf / Brain/Plasma ratio Cmax: assumes brain density 1 g/ml
# [2] = Monitoring for sedation via physical observation; assay type: in vivo, mouse; conditions: all mice treated with CBD (70-150 mg/kg with CLB 5 + VPA 75 mg/kg ip)
# Core body temperature = assay type: in vivo, mouse; conditions: all mice treated with CBD (with CLB + VPA) ip
# [3] = test system: hyperthermia-induced seizures in Scn1a^A1783V/WT mice; conditions: cited from earlier work
# [4] = comedication with CLB; cited from earlier work
# [5] = mouse, in vivo
# in vivo = conditions: Scn1a^WT/WT (wild-type), mouse, ip
# [6] = Single Drug, each alone ip, Scn1a^WT/WT mice
# [7] = Triple (CLB+VPA+CBD) ip, Scn1a^WT/WT mice
# [8] = Double (CLB+VPA) ip, Scn1a^WT/WT mice
smiles,measurement,setting,value
"C=C(C)[C@@H]1CCC(CO)=C[C@H]1c1c(O)cc(CCCCC)cc1O [7-OH-CBD, 7-hydroxycannabidiol]",Brain/Plasma ratio AUC0-inf,[1]; [6],0.82
same,Brain/Plasma ratio Cmax,[1]; [6],0.93
same,Brain/Plasma ratio AUC0-inf,[1]; [7],1.02
same,Brain/Plasma ratio Cmax,[1]; [7],0.86
"C=C(C)[C@@H]1CCC(C)=C[C@H]1c1c(O)cc(CCCCC)cc1O [CBD, cannabidiol]","Increase in brain exposure, CBD+CLB+VPA compared to CBD monotherapy","[1]; mouse, in vivo",two-fold
same,Signs of sedation,[2],No signs of sedation
same,Post-injection core body temperature compared to baseline pre-injection,Core body temperature,reduction in post-injection core body temperatures
"CN1C(=O)CC(=O)N(c2ccccc2)c2cc(Cl)ccc21 [CLB, clobazam]","Exposure (AUC0-inf), triple-drug therapy (CLB+VPA+STP) vs CLB alone or CLB + VPA",[1]; Scn1a^WT/WT mice,substantially higher
same,CLB stand-alone PK in Scn1a^A1783V/WT vs Scn1a^WT/WT mice,[1]; Table S2,comparable PK profile
same,Exposure when adding CBD to CLB+VPA vs adding STP to CLB+VPA,"[1]; mouse, in vivo",higher
same,"Brain Cmax, triple-drug therapy (CLB+VPA+STP) vs CLB alone and CLB + VPA","[1]; p<0.0001 vs CLB alone, p=0.0003 vs CLB + VPA",significantly higher
"CCNC(C)Cc1cccc(C(F)(F)F)c1 (stereo not drawn) [FFA, fenfluramine]",Protection against hyperthermia-induced seizures,[3]; FFA 25 mg/kg alone,insufficient to prevent hyperthermia-induced seizures
"C[C@H]1CNCCc2ccc(Cl)cc21 [LCS, Lorcaserin]",Protection against hyperthermia-induced seizures,[3]; LCS 10 mg/kg alone,insufficient to prevent hyperthermia-induced seizures
"O=C1CC(=O)N(c2ccccc2)c2cc(Cl)ccc2N1 [N-CLB, N-desmethylclobazam]",Brain/Plasma ratio AUC0-inf,[1]; [8],1.42
same,Brain/Plasma ratio Cmax,[1]; [8],1.39
same,Brain/Plasma ratio AUC0-inf,[1]; [6],2.1
same,Brain/Plasma ratio Cmax,[1]; [6],1.25
same,Brain/Plasma ratio AUC0-inf,[1]; [7],1.56
same,Brain/Plasma ratio Cmax,[1]; [7],1.2
same,Brain/Plasma ratio AUC0-inf,"[1]; Triple (CLB+VPA+STP) ip, Scn1a^WT/WT mice",2.29
same,Exposure when adding CBD to CLB+VPA vs adding STP to CLB+VPA,"[1]; mouse, in vivo",higher
same,Fold increase of concentrations in triple-drug therapies compared to CLB+VPA,"[1]; mouse, in vivo",> 2 fold
"CC(C)(C)C(O)/C=C/c1ccc2c(c1)OCO2 (stereo not drawn) [STP, stiripentol]",Increase of STP concentration by CLB,[4],37%
same,"Brain Cmax, CLB + VPA + STP cohort vs STP alone",[5],not different
same,half-life,in vivo,52.1 min
same,Protection against hyperthermia-induced seizures,[3]; STP 100 mg/kg alone,ineffective
"CCCC(CCC)C(=O)O [VPA, sodium valproate]",Brain exposure in CBD+CLB+VPA compared to CLB+VPA or VPA-alone,[5],increase
